Paper PMC11944476, “In Vitro Evaluation of Esters of Quinoxaline-1,4-di-N-oxide Derivatives as New Antitaeniasis Agents and Their Inhibitory Activity Against Triosephosphate Isomerase” (Pharmaceuticals, 2025)

What was measured:
[1] = target: T1, recombinant TsTIM (WT TsTIM) (Taenia solium, UniProt Q9GTX8); experiment: enzyme inactivation assay, GAP to DHAP, alpha-GDH coupled NADH oxidation at […] nm; format: biochemical
T1 construct: N-terminal six-His tag from pRSET, expressed in E. coli BL21 Codon Plus (DE3)-RIL, IMAC-purified, tag removal not mentioned; TIM is a dimer

[2] = target: T1, recombinant TsTIM (WT TsTIM); experiment: alpha-GDH coupled NADH oxidation at […] nm; format: biochemical; details: GAP to DHAP direction

T1 sequence (Q9GTX8 whole entry): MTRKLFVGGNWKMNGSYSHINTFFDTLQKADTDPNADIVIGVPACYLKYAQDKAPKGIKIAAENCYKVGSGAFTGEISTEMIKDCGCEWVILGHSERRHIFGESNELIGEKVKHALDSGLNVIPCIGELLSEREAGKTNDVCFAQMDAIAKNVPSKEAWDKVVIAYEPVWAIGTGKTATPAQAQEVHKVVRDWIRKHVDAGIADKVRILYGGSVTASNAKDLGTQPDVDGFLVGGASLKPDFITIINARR

| Structure (SMILES) | inhibition at 1000 µM [1] | alpha-GDH coupled NADH oxidation at 340 nm [2] |
| --- | --- | --- |
| CCOC(=O)c1ccc2c(c1)[n+]([O-])c(C(=O)c1cccs1)c(C(F)(F)F)[n+]2[O-] [TS-12] | < 40% | – |
| O=C[C@H](O)COP(=O)(O)O [glyceraldehyde 3-phosphate] | – | measuring the conversion of glyceraldehyde 3-phosphate (GAP) to dihydroxyacetone phosphate (DHAP) |
